According to US8546579B2, “Bicycloheteroaryl compounds as P2X7 modulators and uses thereof” (Evotec (US) Inc., priority 2006, dated 2013):

Molecular target: T1, P2X7 receptor (Homo sapiens, UniProt Q99572)
T1 construct: host or cells: THP-1 cells differentiated with LPS and IFN-γ
T1 sequence (Q99572 1-595): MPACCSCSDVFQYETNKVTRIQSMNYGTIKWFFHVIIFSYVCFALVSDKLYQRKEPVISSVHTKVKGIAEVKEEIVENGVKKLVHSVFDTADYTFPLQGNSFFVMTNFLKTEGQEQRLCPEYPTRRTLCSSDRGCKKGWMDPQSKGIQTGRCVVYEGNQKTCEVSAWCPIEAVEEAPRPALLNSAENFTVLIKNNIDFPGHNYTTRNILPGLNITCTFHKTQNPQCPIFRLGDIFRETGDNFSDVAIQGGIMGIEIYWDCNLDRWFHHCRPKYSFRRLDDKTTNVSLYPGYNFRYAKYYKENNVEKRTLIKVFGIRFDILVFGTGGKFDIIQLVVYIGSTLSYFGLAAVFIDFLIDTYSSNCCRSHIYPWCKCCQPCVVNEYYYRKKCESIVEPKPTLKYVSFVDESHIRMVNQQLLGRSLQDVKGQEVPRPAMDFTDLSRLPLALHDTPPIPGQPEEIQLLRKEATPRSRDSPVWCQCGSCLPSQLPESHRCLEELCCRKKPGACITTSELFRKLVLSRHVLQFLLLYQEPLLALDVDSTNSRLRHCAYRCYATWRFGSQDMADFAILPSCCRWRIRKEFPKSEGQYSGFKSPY
Assay: IL-1β release assay in differentiated THP-1 cells stimulated with BzATP (Example 9)
Type: cell-based
Conditions: differentiated THP-1 cells, BzATP 250 uM; for inhibition at 0.3 µM: 0.3 μM compound, '+' class symbols, read-out: IL-1β % Inhib. @ 0.3 μM; for inhibition at 0.1 µM: 0.1 μM compound, '*' class symbols, read-out: IL-1β % Inhib. (asterisk classes, 0.1 μM)
Experimental: THP-1 cells (ATCC Cat # 285-IF-100) are plated in 96 well plates at a concentration of 200,000 cells per well and allowed to differentiate in RPMI-1640 media (ATCC Cat # 30-2001) containing 10% FBS, 100 IU/mL penicillin, 100 ug/mL streptomycin, 100 ng/mL LPS and 100 ng/mL IFN-γ for 16 hours. Following differentiation, the cells are treated for an additional 2 hours in RPMI-1640 media containing 100 IU/mL penicillin, 100 ug/mL streptomycin and fresh LPS at 100 ng/mL. The cells are then pretreated for 30 minutes with the compound of interest at the appropriate concentration in RPMI media containing 100 IU/mL penicillin, 100 ug/mL streptomycin. Following the pretreatment 2′,3′-O-(4-benzoylbenzoyl)-adenosine 5′-triphosphate (Sigma Aldrich Cat # B6396) is added to a final concentration of 250 uM and the cells are incubated for an additional 45 minutes. 30 uL of cell supernatant is then collected and IL-1β levels determined via ELISA (R&D systems Cat. # HSLB50) according to manufacturer's recommendations using the Tecan Safire plate reader. Background adjusted IL-1β levels of drug treated and non-treated cells are used to calculate the percent inhibition.
The compounds set forth in Table 1 were tested for activity in a cellular model as described herein. Specifically, cells were pretreated with differing amounts of the compound under test and released IL-1β determined as in Example 9, above. Measurements were made and IC50 values, presented in Table 2, below, were determined by fitting the data to a four parameter logistic equation using GraphPad Prism software (GraphPad Software, Inc). The equation may be expressed by the following formula: Y=Bottom+(Top−Bottom)/(1+10^((Log EC50−X)*HillSlope)) Where X is the logarithm of concentration, Y is the response and Y starts at Bottom and goes to Top with a sigmoid shape.

Compound | inhibition at 0.3 µM | inhibition at 0.1 µM
O=C(Nc1cccc2c(=O)n(CC3CCOCC3)ccc12)c1cccc2c1OCCO2 [Compound 1117] | 0 to 25% | –
O=C(Nc1cccc2c(=O)n(CC3CCOCC3)ccc12)c1ccc2c(c1)OCCCO2 [Compound 1118] | 0 to 25% | –
O=C(Cc1csc2ccccc12)Nc1cccc2c(=O)n(CC3CCOCC3)ccc12 [Compound 1119] | 0 to 25% | –
Cc1c(Cl)cccc1C(=O)Nc1cccc2c(=O)n(CC3CCOCC3)ccc12 [Compound 1120] | 0 to 25% | –
Cc1cc(C)cc(CC(=O)Nc2cccc3c(=O)n(CC4CCOCC4)ccc23)c1 [Compound 1121] | 0 to 25% | –
O=C(Nc1cccc2c(=O)n(CC3CCOCC3)ccc12)C1C[C@@H]2CC[C@H]1C2 (stereo partly shown) [Compound 1122] | 0 to 25% | –
COc1ccc(CC(=O)Nc2cccc3c(=O)n(CC4CCOCC4)ccc23)c(OC)c1 [Compound 1123] | 0 to 25% | –
Cc1cc(C(=O)Nc2cccc3c(=O)n(CC4CCOCC4)ccc23)ccc1F [Compound 1124] | 0 to 25% | –
O=C(CCc1ccc(Cl)cc1)Nc1cccc2c(=O)n(CC3CCOCC3)ccc12 [Compound 1125] | 0 to 25% | –
CCOc1ccccc1CC(=O)Nc1cccc2c(=O)n(CC3CCOCC3)ccc12 [Compound 1126] | 0 to 25% | –
COc1ccc(CC(=O)Nc2cccc3c(=O)n(CC4CCOCC4)ccc23)cc1C [Compound 1127] | 0 to 25% | –
Cc1ccc(Cl)c(C(=O)Nc2cccc3c(=O)n(CC4CCOCC4)ccc23)c1 [Compound 1128] | 0 to 25% | –
Cc1ccc(Cl)cc1C(=O)Nc1cccc2c(=O)n(CC3CCOCC3)ccc12 [Compound 1129] | 0 to 25% | –
Cc1cccc(CCC(=O)Nc2cccc3c(=O)n(CC4CCOCC4)ccc23)c1 [Compound 1130] | 0 to 25% | –
O=C(Nc1cccc2c(=O)n(CC3CCOCC3)ccc12)c1cc2cc(Cl)ccc2o1 [Compound 1131] | 0 to 25% | –
Cc1cccc(C(=O)Nc2cccc3c(=O)n(CC4CCOCC4)ccc23)c1Cl [Compound 1132] | 0 to 25% | –
COc1ccc(C(=O)Nc2cccc3c(=O)n(CC4CCOCC4)ccc23)cc1C [Compound 1133] | 0 to 25% | –
Cc1ccc(CCC(=O)Nc2cccc3c(=O)n(CC4CCOCC4)ccc23)c(C)c1 [Compound 1134] | 0 to 25% | –
O=C(CCc1cccc(Cl)c1)Nc1cccc2c(=O)n(CC3CCOCC3)ccc12 [Compound 1135] | 0 to 25% | –
CC(C)Cc1ccc(C(=O)Nc2cccc3c(=O)n(CC4CCOCC4)ccc23)cc1 [Compound 1136] | 0 to 25% | –

Compound | inhibition at 0.3 µM | inhibition at 0.1 µM
CN(C)CCn1ccc2c(NC(=O)c3ccccc3Cl)cccc2c1=O [Compound 1137] | 0 to 25% | –
CN(C)CCn1ccc2c(NC(=O)c3ccc(Cl)cc3Cl)cccc2c1=O [Compound 1138] | 0 to 25% | –
CN(C)CCn1ccc2c(NC(=O)c3cc(Cl)ccc3Cl)cccc2c1=O [Compound 1139] | 0 to 25% | –
Cc1cccc(C(=O)Nc2cccc3c(=O)n(CCN(C)C)ccc23)c1C [Compound 1140] | 0 to 25% | –
Cc1ccc(C(=O)Nc2cccc3c(=O)n(CCN(C)C)ccc23)c(C)c1 [Compound 1141] | 0 to 25% | –
Cc1ccc(C)c(C(=O)Nc2cccc3c(=O)n(CCN(C)C)ccc23)c1 [Compound 1142] | 0 to 25% | –
CN(C)CCn1ccc2c(NC(=O)c3cc(Cl)cc(Cl)c3)cccc2c1=O [Compound 1143] | 0 to 25% | –
Cc1cccc(C(=O)Nc2cccc3c(=O)n(CCN(C)C)ccc23)c1 [Compound 1145] | 0 to 25% | –
CCOc1ccc(C(=O)Nc2cccc3c(=O)n(CCN(C)C)ccc23)cc1 [Compound 1146] | – | 0 to 25%
CN(C)CCn1ccc2c(NC(=O)c3ccc(C(C)(C)C)cc3)cccc2c1=O [Compound 1147] | 0 to 25% | –
CC(C(=O)Nc1cccc2c(=O)n(CCN(C)C)ccc12)c1ccccc1 (stereo not shown) [Compound 1148] | 0 to 25% | –
COc1ccccc1CCC(=O)Nc1cccc2c(=O)n(CCN(C)C)ccc12 [Compound 1149] | – | 0 to 25%
COc1ccc(CCC(=O)Nc2cccc3c(=O)n(CCN(C)C)ccc23)cc1 [Compound 1150] | 0 to 25% | –
CN(C)CCn1ccc2c(NC(=O)c3cccc4ccccc34)cccc2c1=O [Compound 1151] | 0 to 25% | –
CN(C)CCn1ccc2c(NC(=O)Cc3cccc4ccccc34)cccc2c1=O [Compound 1152] | 0 to 25% | –
CN(C)CCn1ccc2c(NC(=O)c3ccc4ccccc4c3)cccc2c1=O [Compound 1153] | 0 to 25% | –
CN(C)CCn1ccc2c(NC(=O)Cc3ccccc3F)cccc2c1=O [Compound 1154] | 0 to 25% | –
CN(C)CCn1ccc2c(NC(=O)Cc3ccccc3Cl)cccc2c1=O [Compound 1155] | 0 to 25% | –
COc1ccc(OC)c(CC(=O)Nc2cccc3c(=O)n(CCN(C)C)ccc23)c1 [Compound 1156] | 0 to 25% | –
Cc1ccccc1CC(=O)Nc1cccc2c(=O)n(CCN(C)C)ccc12 [Compound 1157] | 0 to 25% | –

Compound | inhibition at 0.3 µM | inhibition at 0.1 µM
COc1ccc(CC(=O)Nc2cccc3c(=O)n(CCN(C)C)ccc23)cc1OC [Compound 1158] | 0 to 25% | –
Cc1cccc(CC(=O)Nc2cccc3c(=O)n(CCN(C)C)ccc23)c1 [Compound 1159] | 0 to 25% | –
CCOc1ccc(CC(=O)Nc2cccc3c(=O)n(CCN(C)C)ccc23)cc1 [Compound 1160] | 0 to 25% | –
CN(C)CCn1ccc2c(NC(=O)CCCc3ccccc3)cccc2c1=O [Compound 1161] | 0 to 25% | –
CN(C)CCn1ccc2c(NC(=O)c3cc4ccccc4o3)cccc2c1=O [Compound 1162] | 0 to 25% | –
CN(C)CCn1ccc2c(NC(=O)Cc3ccc4c(c3)OCO4)cccc2c1=O [Compound 1163] | 0 to 25% | –
COc1cc(CC(=O)Nc2cccc3c(=O)n(CCN(C)C)ccc23)cc(OC)c1 [Compound 1164] | 0 to 25% | –
COc1c(C)cc(C(=O)Nc2cccc3c(=O)n(CCN(C)C)ccc23)cc1C [Compound 1165] | 0 to 25% | –
Cc1cc(Cl)ccc1C(=O)Nc1cccc2c(=O)n(CCN(C)C)ccc12 [Compound 1166] | 0 to 25% | –
CN(C)CCn1ccc2c(NC(=O)CC3CC4CC[C@H]3C4)cccc2c1=O (stereo partly shown) [Compound 1167] | 26 to 50% | –
CN(C)CCn1ccc2c(NC(=O)[C@@]34C[C@@H]5C[C@@H](C[C@@H]3C5)C4)cccc2c1=O [Compound 1168] | 0 to 25% | –
CN(C)CCn1ccc2c(NC(=O)c3cccc4c3OCCO4)cccc2c1=O [Compound 1169] | 0 to 25% | –
CN(C)CCn1ccc2c(NC(=O)c3ccc4c(c3)OCCCO4)cccc2c1=O [Compound 1170] | 0 to 25% | –
CN(C)CCn1ccc2c(NC(=O)Cc3csc4ccccc34)cccc2c1=O [Compound 1171] | 0 to 25% | –
Cc1c(Cl)cccc1C(=O)Nc1cccc2c(=O)n(CCN(C)C)ccc12 [Compound 1172] | 0 to 25% | –
Cc1cc(C)cc(CC(=O)Nc2cccc3c(=O)n(CCN(C)C)ccc23)c1 [Compound 1173] | 0 to 25% | –
Cc1cc(C(=O)Nc2cccc3c(=O)n(CCN(C)C)ccc23)ccc1F [Compound 1175] | 0 to 25% | –
CN(C)CCn1ccc2c(NC(=O)CCc3ccc(Cl)cc3)cccc2c1=O [Compound 1176] | 0 to 25% | –
